As a reminder, the inhibition is the percentage by which the read-out fell short of the control. High values mean a response far below the control, low ones a response near the control. One may read the EC50 as the midpoint of the concentration-response curve.

Consider seven compounds from patent US20250186425A1, “PPARG INVERSE AGONISTS AND USES THEREOF” (Flare Therapeutics Inc., priority 2022, published 2025).

Test [1] relates to HT1197 (RXRA S427F mutation) cells. The test is described as follows: Bladder cancer pharmacodynamic assay, HT1197 cell assay (qPCR of PPARG target gene ANGPTL4). The class given is cell-based. The settings on record: Homo sapiens; for inhibition at 0.1 µM: 100 nM compound, 24 hours, relative to DMSO control; for EC50: 24 hours treatment, qPCR. The method, then: 5637 (PPARG amplified) and HT1197 (RXRA S427F mutation) cells were used for assessment of modulation of PPARG target genes using quantitative PCR. Cells were treated for 24 hours with PPARG inverse agonists prior to analysis of FABP4 (IDT, Cat: Hs.PT 58.20106818) and ANGPTL4 (IDT, Cat: Hs.PT 58.25480012) expression, with expression of the housekeeping gene TBP (IDT, Cat: Hs.PT 58v.39858774) used to normalize expression across samples. Quantitative PCR was performed using an ABI QuantStudio 7 Flex Reaction system. Data were analyzed and reported relative to DMSO control using the comparative Ct method […].

Test [2] addresses T1, PPARG/RXRA LBD heterodimer (Homo sapiens (Human), UniProt P37231). The test is described as follows: PPARG-MED1 blockade assay (TR-FRET). The settings on record: for EC50: TR-FRET, biotinylated MED1 LxxLL peptide, 80 nM Rosiglitazone, 3 hours, IC50; for % MED1 blockade relative to GW9662: maximal extent, GW9662 defined as 100%, DMSO 0%. The test is classed as biochemical. The method, then: Compound potency (IC50) and maximal extent of MED1 repulsion to PPARG were assessed a TR-FRET binding assay measuring association of a biotinylated MED1 LxxLL peptide (Biotin-[…]-amide) to PPARG/RXRA LBD heterodimer. Specifically, a 20 microliters of TR-FRET master mix consisting of 2 nM WT PPARG LBD (e. coli expressed, His-TEV-Q203-Y477; Uniprot ID P37231-2), 2 nM WT RXRA LBD (e. coli expressed, Flag-TEV-E228-T462; […]. Mixtures were incubated for 3 hours and read in an EnVision plate reader (Perkin Elmer) with Ex/Em 615/665. To determine the potency (IC50) and extent of MED1 repulsion, TR-FRET ratios were normalized to the average ratio of DMSO control wells (0%) and to the average minimum ratio for positive control compound (GW9662 (2-chloro-5-nitrobenzanilide); defined as 100%) in CDD Vault and analyzed using the Levenberg-Marquardt algorithm.
On the technique in general: TR-FRET usually uses a lanthanide donor and a delayed reading to cut background.

In test [3] the target is T1, PPARG/RXRA LBD heterodimer. The test is described as follows: PPARG-NCOR1 recruitment assay (TR-FRET). The settings on record: for EC50: TR-FRET, biotinylated NCOR1 ID2 peptide, 80 nM Rosiglitazone, 3 hours, read-out: PPARG-NCOR recruitment assay EC50; for % NCOR recruitment relative to T907: maximal extent, T0070907 defined as 100%, DMSO 0%. The test is classed as biochemical. The method, then: Compound potency (EC50) and maximal extent of NCOR1 recruitment to PPARG were assessed a TR-FRET binding assay measuring association of a biotinylated NCOR1 ID2 peptide (Biotin-[…]-amide) to PPARG/RXRA LBD heterodimer. Specifically, a 20 microliters of TR-FRET master mix consisting of 2 nM WT PPARG LBD (e. coli expressed, His-TEV-Q203-Y477; Uniprot ID P37231-2), 2 nM WT RXRA LBD or mutant S427F RXRA LBD (e. coli expressed, Flag-TEV-E228-T462; […]. Mixtures were incubated for 3 hours and read in an EnVision plate reader (Perkin Elmer) with Ex/Em 615/665. To determine the potency (EC50) and extent of NCOR1 recruitment, TR-FRET ratios were normalized to the average ratio of DMSO control wells (0%) and to the average maximum ratio for positive control compound (T0070907 (2-chloro-5-nitro-N-4-pyridinyl-benzamide); defined as 100%) in CDD Vault and analyzed using the Levenberg-Marquardt algorithm.

T1 sequence (P37231 whole entry, looked up, the tested form may be a part): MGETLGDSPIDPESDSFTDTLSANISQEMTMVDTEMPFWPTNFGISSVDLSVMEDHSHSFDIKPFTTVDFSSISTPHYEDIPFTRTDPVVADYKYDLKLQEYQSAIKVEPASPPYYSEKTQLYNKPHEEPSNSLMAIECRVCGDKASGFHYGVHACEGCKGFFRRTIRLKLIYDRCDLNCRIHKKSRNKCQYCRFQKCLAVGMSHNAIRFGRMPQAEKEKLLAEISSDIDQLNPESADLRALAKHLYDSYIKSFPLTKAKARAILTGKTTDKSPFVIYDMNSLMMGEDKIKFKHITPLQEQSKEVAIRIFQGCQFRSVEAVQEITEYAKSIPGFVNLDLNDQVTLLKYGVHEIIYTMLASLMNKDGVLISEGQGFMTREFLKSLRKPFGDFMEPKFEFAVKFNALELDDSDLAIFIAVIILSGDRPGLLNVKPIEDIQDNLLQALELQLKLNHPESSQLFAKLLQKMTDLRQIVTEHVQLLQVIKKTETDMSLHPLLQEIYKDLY
T1 sequence (P19793 whole entry partner, looked up, the tested form may be a part): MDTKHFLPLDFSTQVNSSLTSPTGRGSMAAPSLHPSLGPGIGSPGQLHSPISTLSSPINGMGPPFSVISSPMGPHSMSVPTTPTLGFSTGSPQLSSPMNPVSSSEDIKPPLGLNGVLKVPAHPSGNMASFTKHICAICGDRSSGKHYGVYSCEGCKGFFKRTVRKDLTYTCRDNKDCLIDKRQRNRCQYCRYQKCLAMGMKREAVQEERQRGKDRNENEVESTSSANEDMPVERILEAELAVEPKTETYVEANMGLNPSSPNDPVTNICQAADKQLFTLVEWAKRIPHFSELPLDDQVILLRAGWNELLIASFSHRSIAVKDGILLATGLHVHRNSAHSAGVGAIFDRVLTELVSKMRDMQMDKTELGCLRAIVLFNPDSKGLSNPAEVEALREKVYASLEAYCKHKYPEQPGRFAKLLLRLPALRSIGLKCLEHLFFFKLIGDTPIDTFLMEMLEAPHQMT

Regarding `Cn1cc(Oc2cc(F)cc3[nH]c(-c4cc(C#N)ccc4S(C)(=O)=O)cc(=O)c23)cn1` [Example 3, 3-(7-Fluoro-5-((1-Methyl-1H-Pyrazol-4-Yl)Oxy)-4-Oxo-1,4-Dihydroquinolin-2-Yl)-4-(Methylsulfonyl)Benzonitrile], the inhibition at 0.1 µM in test [1] is 82%. For the same compound, in test [2], the EC50 was 1000 to 10000 nM and the “% MED1 blockade relative to GW9662” value is on record as “A (A: >100% (>the control compound, GW9662))”. In test [3], the EC50 fell in the range of 1000 to 10000 nM and the “% NCOR recruitment relative to T907” value is on record as “A (A: >100% (>the control compound, T907))”.
For the compound `CS(=O)(=O)c1ccc(C#N)cc1-c1cc(=O)c2c(Oc3ccc(Cl)cc3)cc(F)cc2[nH]1` [Example 1, 3-(5-(4-Chlorophenoxy)-7-Fluoro-4-Oxo-1,4-Dihydroquinolin-2-Yl)-4-(Methylsulfonyl)Benzonitrile], in test [1], testing at 0.1 µM gave an inhibition of 85% and the EC50 turned out to be 0.8 nM. Also, in test [2], the EC50 fell in the range of 100 to 1000 nM and the “% MED1 blockade relative to GW9662” value is given as “A (A: >100% (>the control compound, GW9662))”. Moreover, in test [3], the 50% effective concentration (EC50) was 100 to 1000 nM and the “% NCOR recruitment relative to T907” value was “A (A: >100% (>the control compound, T907))”.
In test [1], `Cn1cc(Oc2cc(Cl)cc3[nH]c(-c4cc(C#N)ccc4S(C)(=O)=O)cc(=O)c23)cn1` [Example 4, 3-(7-Chloro-5-((1-Methyl-1H-Pyrazol-4-Yl)Oxy)-4-Oxo-1,4-Dihydroquinolin-2-Yl)-4-(Methylsulfonyl)Benzonitrile] displayed an inhibition at 0.1 µM of 86% and an EC50 of 0.35 nM. Moreover, in test [2], the EC50 lay in the range of 100 to 1000 nM and the “% MED1 blockade relative to GW9662” value is listed as “A (A: >100% (>the control compound, GW9662))”. Moreover, in test [3], the EC50 fell in the range of 100 to 1000 nM and the “% NCOR recruitment relative to T907” value is on record as “A (A: >100% (>the control compound, T907))”.
As to `CS(=O)(=O)c1ccc(C#N)cc1-c1cc(=O)c2c(Cc3ccc(Cl)cc3)cc(F)cc2[nH]1` [Example 7, 3-(5-(4-Chlorobenzyl)-7-Fluoro-4-Oxo-1,4-Dihydroquinolin-2-Yl)-4-(Methylsulfonyl)Benzonitrile], the inhibition at 0.1 µM in test [1] is 90%. Besides, in test [2], the EC50 was 100 to 1000 nM and the “% MED1 blockade relative to GW9662” value was “A (A: >100% (>the control compound, GW9662))”. Also, in test [3], the EC50 was in the range of 10 to 100 nM and the “% NCOR recruitment relative to T907” value is on record as “A (A: >100% (>the control compound, T907))”.
For `N#Cc1ccc(Cl)c(-c2cc(=O)c3c(Oc4ccc(Cl)cc4)cc(F)cc3[nH]2)c1` [Example 2, 4-Chloro-3-(5-(4-Chlorophenoxy)-7-Fluoro-4-Oxo-1,4-Dihydroquinolin-2-Yl)Benzonitrile], the inhibition at 0.1 µM in test [1] came to 91%. In test [2], the EC50 was 100 to 1000 nM and the “% MED1 blockade relative to GW9662” value is recorded as “B (B: <100% (<the control compound, GW9662))”. In test [3], the EC50 was 100 to 1000 nM and the “% NCOR recruitment relative to T907” value is recorded as “A (A: >100% (>the control compound, T907))”.
With `N#Cc1ccc(Cl)c(-c2cc(=O)c3c(Oc4ccc(Cl)nc4)cc(F)cc3[nH]2)c1` [Example 5, 4-Chloro-3-(5-((6-Chloropyridin-3-Yl)Oxy)-7-Fluoro-4-Oxo-1,4-Dihydroquinolin-2-Yl)Benzonitrile], the inhibition at 0.1 µM in test [1] came out at 77%. In addition, in test [2], the EC50 was in the range of 100 to 1000 nM and the “% MED1 blockade relative to GW9662” value is on record as “A (A: >100% (>the control compound, GW9662))”. For the same compound, in test [3], the EC50 was in the range of 100 to 1000 nM and the “% NCOR recruitment relative to T907” value was “A (A: >100% (>the control compound, T907))”.
In test [1], `N#Cc1ccc(Cl)c(-c2cc(=O)c3c(OCc4ccc(Cl)cc4)cc(F)cc3[nH]2)c1` [Example 6, 4-Chloro-3-(5-((4-Chlorobenzyl)Oxy)-7-Fluoro-4-Oxo-1,4-Dihydroquinolin-2-Yl)Benzonitrile] had an inhibition at 0.1 µM of 25%. Also, in test [2], the EC50 is 100 to 1000 nM and the “% MED1 blockade relative to GW9662” value was “A (A: >100% (>the control compound, GW9662))”. For the same compound, in test [3], the EC50 lay in the range of 100 to 1000 nM and the “% NCOR recruitment relative to T907” value is listed as “A (A: >100% (>the control compound, T907))”.
